Structures can show the parent of a compound that is named as a salt.

T2 sequence (Q08499 386-715 limits assumed): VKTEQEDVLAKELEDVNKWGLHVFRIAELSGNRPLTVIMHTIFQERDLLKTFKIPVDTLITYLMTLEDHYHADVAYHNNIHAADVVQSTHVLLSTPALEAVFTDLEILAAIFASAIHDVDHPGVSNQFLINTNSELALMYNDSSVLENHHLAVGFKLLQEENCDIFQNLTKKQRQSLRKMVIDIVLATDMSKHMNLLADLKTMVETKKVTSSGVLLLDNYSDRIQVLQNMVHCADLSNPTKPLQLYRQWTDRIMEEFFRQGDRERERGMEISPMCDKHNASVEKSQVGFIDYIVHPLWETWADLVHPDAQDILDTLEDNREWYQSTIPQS

The first test deals with T1, FRK (Homo sapiens, UniProt P42685).
T1 construct: either the full length protein or with a kinase construct that spans the catalytic domain
T1 sequence (P42685 whole entry, the tested form may be a part): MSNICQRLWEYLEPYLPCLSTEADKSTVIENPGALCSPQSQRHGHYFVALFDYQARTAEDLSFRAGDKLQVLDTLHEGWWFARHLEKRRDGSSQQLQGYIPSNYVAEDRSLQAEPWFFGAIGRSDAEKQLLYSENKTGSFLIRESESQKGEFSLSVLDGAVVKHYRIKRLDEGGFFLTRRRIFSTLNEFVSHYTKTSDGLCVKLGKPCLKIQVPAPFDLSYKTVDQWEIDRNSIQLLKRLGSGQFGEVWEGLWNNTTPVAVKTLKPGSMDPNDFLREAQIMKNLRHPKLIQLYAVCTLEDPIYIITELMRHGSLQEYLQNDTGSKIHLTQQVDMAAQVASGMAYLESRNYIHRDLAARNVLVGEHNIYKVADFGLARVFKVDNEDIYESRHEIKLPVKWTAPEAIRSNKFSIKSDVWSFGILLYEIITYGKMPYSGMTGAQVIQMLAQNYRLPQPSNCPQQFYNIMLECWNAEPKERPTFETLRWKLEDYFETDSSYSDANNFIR
Briefly: Binding affinity (Kd), KinomeScan kinase binding assay. As to conditions: FRK inhibitor. An excerpt: The assay can be performed with either the full length protein or with a kinase construct that spans the catalytic domain.
Take `CCOc1cc2ncc(C#N)c(Nc3ccc(F)c(Cl)c3)c2cc1NC(=O)/C=C/CN(C)C` [Pelitinib]: the dissociation constant (Kd) came out at 190 nM.

Another test concerns the target T2, human PDE4D (Homo sapiens, UniProt Q08499).
T2 construct: The cloning of catalytic domains of human PDE4D as well as the expression and purification of the PDE catalytic domains; made in house
Briefly: Measurement of PDE4D activity and determination of IC50 (scintillation bead assay, 3H-cAMP). As to conditions: PDE4D inhibitor. It counts as biochemical. The procedure: The half maximal inhibitory concentration (IC50) is a measure of the effectiveness of a compound in inhibiting biological or biochemical function. Concentration-response plots are used to determine the effects of an inhibitor on an enzymatic reaction.
Measurement of phosphodiesterase activity takes advantage of the selective binding of 5-AMP or 5-GMP (and not cAMP or cGMP) to yttrium silicate beads with embedded scintillant. 0.1-1 nM PDE was incubated with 50 nM 3H-cAMP or 70 nM 3H-cGMP (Amersham, 5-60 Ci/mmol) in 50 mM Tris (pH 7.5), 8.3 mM MgCl2, 1.7 mM EGTA, and 0.01% BSA at 30 C for 30 min in 384-well assay plates. The assay was terminated by adding one-third volume of 5 mg/ml yttrium silicate beads in 18 mM ZnAcetate/ZnSO4 solution (3:1). A minimum of 30 min after mixing and centrifuging the reaction, hydrolysis was quantified by reading in a scintillation counter (Trilux, […] Wallac).
In the case of `O=C(Nc1c(Cl)c[n+]([O-])cc1Cl)c1ccc(OC(F)F)c2oc3ccncc3c12` [Revamilast], 2.7 nM corresponded to half-maximal inhibition (IC50). The same measure, in the same setting: the same measure for `COc1ccc(/C(C)=N/OC(N)=O)cc1OC1CCCC1` [Filaminast]: 1000 nM; for `CCOc1ccc(-c2nc(-c3cccc(C(=O)O)n3)cs2)cc1OCC` [Tetomilast, 6-[2-(3,4-diethoxyphenyl)-1,3-thiazol-4-yl]pyridine-2-carboxylic acid]: 70 nM; for `COc1ccc([C@H](Cc2ccncc2)c2ccccc2)cc1OC1CCCC1` [CDP-840, 4-[(2R)-2-[3-(Cyclopentyloxy)-4-methoxyphenyl]-2-phenylethyl]-pyridine hydrochloride]: 2.1 nM. On the same count and under the same terms, under Tolafentrine stands 30 nM; under `CCC1C(C)=NN=C(c2ccc(OC)c(OC)c2)c2cc(OC)c(OC)cc21` (centres unmarked) [Tofisopam, 1-(3,4-dimethoxyphenyl)-5-ethyl-7,8-dimethoxy-4-methyl-5H-2,3-benzodiazepine], 900 nM; under `CS(=O)(=O)Nc1ccc2oc3c(OC(F)F)ccc(C(=O)Nc4c(Cl)cncc4Cl)c3c2c1` [oglemilast], 166 nM. On the same count and under the same terms, under `O=C(Nc1c(Cl)cncc1Cl)C(=O)c1cn(Cc2ccc(F)cc2)c2ncccc12` [Ronomilast] stands 3.5 nM. Turning to `CCNc1ncn(Cc2ccc(OC)c(OC3CCCC3)c2)c2nc(C(C)C)nc1-2` [V11294, -[(3-cyclopentyloxy-4-methoxyphenyl)methyl]-N-ethyl-8-propan-2-ylpurin-6-amine:], the IC50 worked out at 200 nM.

In turn, `Cc1c[n+]([O-])ccc1CC(c1ccc(C(O)(C(F)(F)F)C(F)(F)F)cc1)c1ccc(OC(F)F)c(OC(F)F)c1` [L-826,141, 4-[2-[3,4-Bis(difluoromethoxy)phenyl]-2-[4-[2,2,2-trifluoro-1-hydroxy-1-(trifluoro-methyl)ethyl]phenyl]ethyl]-3-methylpyridine N-oxide] registered an IC50 of 2.4 nM. As for `CCCOc1cc([C@]2(C)CNC(=O)O2)ccc1OC` [Daxalipram], half-maximal inhibition (IC50) required 1100 nM.

For the next test, the system named is rats with peripheral mononeuropathy induced by loose ligation of the sciatic nerve.
Assay: not given
Conditions: background statement; cited from earlier work.
Take `CC(C)C[C@H](CN)CC(=O)O` [Pregabalin]: the “ameliorating symptoms of pain in the CCl model” value is listed as “effective at ameliorating symptoms of pain”.

A further test relates to rats with inflammatory pain induced by injection of an adjuvant (CFA).
Assay: not given
Conditions: background statement on the positive control; cited from earlier work.
As for `COc1ccc2c(c1)c(CC(=O)O)c(C)n2C(=O)c1ccc(Cl)cc1` [indomethacin], the “efficacy in the CFA model” value is “demonstrated efficacy”.

The term Kd denotes the constant that tells how readily two partners part at equilibrium. A lower Kd goes with higher affinity. For orientation: IC50 means the concentration needed to halve the response being measured.

The values are drawn from patent US20130252924A1, “Compounds and Methods for Treating Pain” (AKRON MOLECULES GMBH, priority 2010, published 2013).
